Source: patent US10584115B2, “Substituted pyridine and pyrazine BMI-1 inhibitors” (PTC Therapeutics, Inc., priority 2013, dated 2020)

Test system: Bmi-1 protein
Assay: Sandwich ELISA Assay (Bmi-1 protein level in HT-1080 cells after compound treatment)
Assay type: cell-based
Conditions: Table 1, Bmi-1 sandwich ELISA, read-out: ELISA EC50 value for Bmi-1 protein
Procedure, shortened: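 HT-1080 cells exposed to compounds for 40–48 h at 37 °C (0.5% DMSO final), then lysed. Bmi-1 in lysates measured by sandwich ELISA (mouse monoclonal capture, rabbit anti-Bmi-1 detection, HRP anti-rabbit, TMB), read at OD450 with OD570 reference against a recombinant Bmi-1 standard curve (0–8000 pg/mL).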

Row | SMILES | EC50
1 | Cc1nc2cc(Cl)ccc2n1-c1cncc(Nc2ccc(C(F)(F)F)cc2)n1 [compound 239, 6-(5-chloro-2-methyl-1H-benzimidazol-1-yl)-N-[4-(trifluoromethyl)phenyl]pyrazin-2-amine] | 10 to 100 nM
2 | Cc1nc2ccc(Cl)cc2n1-c1cncc(Nc2ccc(C(F)(F)F)cc2)n1 [compound 240, 6-(6-chloro-2-methyl-1H-benzimidazol-1-yl)-N-[4-(trifluoromethyl)phenyl]pyrazin-2-amine] | 10 to 100 nM
3 | Cc1nc2cc(F)c(F)cc2n1-c1cc(C#N)cc(Nc2ccc(C(F)(F)F)cc2)n1 [compound 241, 2-(5,6-difluoro-2-methyl-1H-benzimidazol-1-yl)-6-{[4-(trifluoromethyl)phenyl]amino}pyridine-4-carbonitrile] | 10 to 100 nM
4 | Cc1nc2cc(F)c(F)cc2n1-c1cc(C#N)cc(Nc2ccc(OC(F)F)cc2)n1 [compound 242, 2-{[4-(difluoromethoxy)phenyl]amino}-6-(5,6-difluoro-2-methyl-1H-benzimidazol-1-yl)pyridine-4-carbonitrile] | 10 to 100 nM
5 | Cc1nc2cc(F)c(F)cc2n1-c1cc(C#N)cc(Nc2ccc(OC(F)(F)F)cc2)n1 [compound 243, 2-(5,6-difluoro-2-methyl-1H-benzimidazol-1-yl)-6-{[4-(trifluoromethoxy)phenyl]amino}pyridine-4-carbonitrile] | 100 to 3000 nM
6 | FC(F)Oc1ccc(Nc2cncc(-c3c(C4CC4)nc4ccc(C(F)(F)F)cn34)n2)cc1 [compound 251, 6-[2-cyclopropyl-6-(trifluoromethyl)imidazo[1,2-a]pyridin-3-yl]-N-[4-(difluoromethoxy)phenyl]pyrazin-2-amine] | 10 to 100 nM
7 | Cc1nc2c(F)cc(F)cn2c1-c1cncc(Nc2ccc(OC(F)F)cc2)n1 [compound 255, N-[4-(difluoromethoxy)phenyl]-6-(6,8-difluoro-2-methylimidazo[1,2-a]pyridin-3-yl)pyrazin-2-amine] | 1 to 10 nM
8 | Cc1nc2ccccc2n1-c1cncc(Nc2ccc(C(C)N)cc2)n1 (stereo not drawn) [compound 256, N-[4-(1-aminoethyl)phenyl]-6-(2-methyl-1H-benzimidazol-1-yl)pyrazin-2-amine] | 100 to 3000 nM
9 | Cc1nc2c(n1-c1cncc(Nc3ccc(OC(F)F)cc3)n1)CCCC2 [compound 258, N-[4-(difluoromethoxy)phenyl]-6-(2-methyl-4,5,6,7-tetrahydro-1H-benzimidazol-1-yl)pyrazin-2-amine] | 1 to 10 nM
10 | Cc1nc2cc(F)c(F)cc2n1-c1cncc(Nc2ccc(OC(F)(F)F)cc2)n1 [compound 266, 6-(5,6-difluoro-2-methyl-1H-benzimidazol-1-yl)-N-[4-(trifluoromethoxy)phenyl]pyrazin-2-amine] | 10 to 100 nM
11 | Cc1nc2c(n1-c1cncc(Nc3ccc(C(F)(F)F)cc3)n1)CCCC2 [compound 267, 6-(2-methyl-4,5,6,7-tetrahydro-1H-benzimidazol-1-yl)-N-[4-(trifluoromethyl)phenyl]pyrazin-2-amine] | 1 to 10 nM
12 | Cc1nc2c(n1-c1cncc(Nc3ccc(OC(F)(F)F)cc3)n1)CCCC2 [compound 268, 6-(2-methyl-4,5,6,7-tetrahydro-1H-benzimidazol-1-yl)-N-[4-(trifluoromethoxy)phenyl]pyrazin-2-amine] | 10 to 100 nM
13 | Cc1nc2ncc(F)cc2n1-c1cncc(Nc2ccc(C(F)(F)F)cc2)n1 [compound 270, 6-(6-fluoro-2-methyl-1H-imidazo[4,5-b]pyridin-1-yl)-N-[4-(trifluoromethyl)phenyl]pyrazin-2-amine] | 1 to 10 nM
14 | CCc1nc2ncc(F)cc2n1-c1cncc(Nc2ccc(C(F)(F)F)cc2)n1 [compound 271, 6-(2-ethyl-6-fluoro-1H-imidazo[4,5-b]pyridin-1-yl)-N-[4-(trifluoromethyl)phenyl]pyrazin-2-amine] | 1 to 10 nM
15 | N#Cc1cc(Nc2ccc(C(F)(F)F)cc2)nc(-c2c(C(F)(F)F)nc3ccc(F)cn23)c1 [compound 272, 2-[6-fluoro-2-(trifluoromethyl)imidazo[1,2-a]pyridin-3-yl]-6-{[4-(trifluoromethyl)phenyl]amino}pyridine-4-carbonitrile] | 10 to 100 nM
16 | N#Cc1cc(Nc2ccc(OC(F)F)cc2)nc(-c2c(C(F)(F)F)nc3ccc(F)cn23)c1 [compound 273, 2-{[4-(difluoromethoxy)phenyl]amino}-6-[6-fluoro-2-(trifluoromethyl)imidazo[1,2-a]pyridin-3-yl]pyridine-4-carbonitrile] | 1 to 10 nM
17 | CNc1ccc2nc(C)n(-c3cncc(Nc4ccc(C(F)(F)F)cc4)n3)c2c1 [compound 274, N,2-dimethyl-1-(6-{[4-(trifluoromethyl)phenyl]amino}pyrazin-2-yl)-1H-benzimidazol-6-amine] | 10 to 100 nM
18 | Cc1nc2ccc(NCc3ccccc3)cc2n1-c1cncc(Nc2ccc(C(F)(F)F)cc2)n1 [compound 275, N-benzyl-2-methyl-1-(6-{[4-(trifluoromethyl)phenyl]amino}pyrazin-2-yl)-1H-benzimidazol-6-amine] | 10 to 100 nM
19 | Cc1c(-c2cncc(Nc3ccc(C(F)(F)F)cc3)n2)c(C(F)(F)F)nn1C [compound 276, 6-[1,5-dimethyl-3-(trifluoromethyl)-1H-pyrazol-4-yl]-N-[4-(trifluoromethyl)phenyl]pyrazin-2-amine] | 10 to 100 nM
20 | Cc1cccc2c1nc(C)n2-c1cncc(Nc2ccc(C(F)(F)F)cc2)n1 [compound 283, 6-(2,4-dimethyl-1H-benzimidazol-1-yl)-N-[4-(trifluoromethyl)phenyl]pyrazin-2-amine] | 10 to 100 nM
21 | Cc1nc2c([N+](=O)[O-])cccc2n1-c1cncc(Nc2ccc(C(F)(F)F)cc2)n1 [compound 284, 6-(2-methyl-4-nitro-1H-benzimidazol-1-yl)-N-[4-(trifluoromethyl)phenyl]pyrazin-2-amine] | 100 to 3000 nM
22 | Cc1nc2ccc(N)cc2n1-c1cncc(Nc2ccc(C(F)(F)F)cc2)n1 [compound 285, 2-methyl-1-(6-{[4-(trifluoromethyl)phenyl]amino}pyrazin-2-yl)-1H-benzimidazol-6-amine] | 10 to 100 nM
23 | N#Cc1cc(Nc2ccc(C(F)(F)F)cc2)nc(-c2c(CO)nc3ccccn23)c1 [compound 288, 2-[2-(hydroxymethyl)imidazo[1,2-a]pyridin-3-yl]-6-{[4-(trifluoromethyl)phenyl]amino}pyridine-4-carbonitrile] | 10 to 100 nM
24 | Cc1nc2ncccc2n1-c1cc(NC(=O)OC(C)(C)C)cc(Nc2ccc(C(F)(F)F)cc2)n1 [compound 290, tert-butyl[2-(2-methyl-1H-imidazo[4,5-b]pyridin-1-yl)-6-{[4-(trifluoromethyl)phenyl]amino}pyridin-4-yl]carbamate] | 100 to 3000 nM
25 | OCCNc1cc(Nc2ccc(C(F)(F)F)cc2)nc(-c2c(C(F)(F)F)nc3ccc(F)cn23)c1 [compound 291, 2-[(2-[6-fluoro-2-(trifluoromethyl)imidazo[1,2-a]pyridin-3-yl]-6-{[4-(trifluoromethyl)phenyl]amino}pyridin-4-yl)amino]ethanol] | 10 to 100 nM
26 | Cc1nc2ncccc2n1-c1cc(N)cc(Nc2ccc(C(F)(F)F)cc2)n1 [compound 292, 6-(2-methyl-1H-imidazo[4,5-b]pyridin-1-yl)-N^2-[4-(trifluoromethyl)phenyl]pyridine-2,4-diamine] | 1 to 10 nM
27 | Fc1cnc2nc(C3CC3)n(-c3cncc(Nc4ccc(C(F)(F)F)cc4)n3)c2c1 [compound 293, 6-(2-cyclopropyl-6-fluoro-1H-imidazo[4,5-b]pyridin-1-yl)-N-[4-(trifluoromethyl)phenyl]pyrazin-2-amine] | 10 to 100 nM
28 | Cc1nc2cc(F)c(F)cc2n1-c1cncc(Nc2ccc(Cl)c(F)c2)n1 [compound 294, N-(4-chloro-3-fluorophenyl)-6-(5,6-difluoro-2-methyl-1H-benzimidazol-1-yl)pyrazin-2-amine] | 100 to 3000 nM
29 | Cc1nc2cc(F)c(F)cc2n1-c1cncc(Nc2ccc(C(F)(F)F)c(F)c2)n1 [compound 295, 6-(5,6-difluoro-2-methyl-1H-benzimidazol-1-yl)-N-[3-fluoro-4-(trifluoromethyl)phenyl]pyrazin-2-amine] | 10 to 100 nM
30 | Cc1nc2c(N)cccc2n1-c1cncc(Nc2ccc(C(F)(F)F)cc2)n1 [compound 296, 2-methyl-1-(6-{[4-(trifluoromethyl)phenyl]amino}pyrazin-2-yl)-1H-benzimidazol-4-amine] | 10 to 100 nM

Same assay, conditions: read-out: ELISA EC50 value for Bmi-1 protein, Table 1, Bmi-1 sandwich ELISA

Row | SMILES | EC50
31 | FC(F)(F)c1ccc(Nc2cncc(-c3cnc4ccccn34)n2)cc1 [compound 235, 6-(imidazo[1,2-a]pyridin-3-yl)-N-[4-(trifluoromethyl)phenyl]pyrazin-2-amine] | 100 to 3000 nM
32 | Cc1nc2c(F)cc(F)cn2c1-c1cncc(Nc2ccc(C(F)(F)F)cc2)n1 [compound 254, 6-(6,8-difluoro-2-methylimidazo[1,2-a]pyridin-3-yl)-N-[4-(trifluoromethyl)phenyl]pyrazin-2-amine] | 1 to 10 nM
33 | Cc1ccc(-c2c(C(F)(F)F)nc3ccccn23)nc1Nc1ccc(C(F)(F)F)cc1 [compound 269, 3-methyl-6-[2-(trifluoromethyl)imidazo[1,2-a]pyridin-3-yl]-N-[4-(trifluoromethyl)phenyl]pyridin-2-amine] | 100 to 3000 nM
34 | Cc1c(-c2cncc(Nc3ccc(OC(F)F)cc3)n2)c(C(F)(F)F)nn1C [compound 280, N-[4-(difluoromethoxy)phenyl]-6-[1,5-dimethyl-3-(trifluoromethyl)-1H-pyrazol-4-yl]pyrazin-2-amine] | 10 to 100 nM
35 | O=[N+]([O-])c1cc(Nc2ccc(C(F)(F)F)cc2)nc(-c2c(C(F)(F)F)nc3ccc(F)cn23)c1 [compound 286, 6-[6-fluoro-2-(trifluoromethyl)imidazo[1,2-a]pyridin-3-yl]-4-nitro-N-[4-(trifluoromethyl)phenyl]pyridin-2-amine] | 10 to 100 nM
36 | Nc1cc(Nc2ccc(C(F)(F)F)cc2)nc(-c2c(C(F)(F)F)nc3ccc(F)cn23)c1 [compound 287, 6-[6-fluoro-2-(trifluoromethyl)imidazo[1,2-a]pyridin-3-yl]-N^2-[4-(trifluoromethyl)phenyl]pyridine-2,4-diamine] | 10 to 100 nM
